Test results published in US20230066830A1, “METHODS AND COMPOSITIONS FOR INDUCING APOPTOSIS IN CANCER STEM CELLS” (VIRGINIA COMMONWEALTH UNIVERSITY, priority 2019, published 2023).

tested on: DU-145 and PC3-ML PCSCs; assay: Live/Dead chemosensitivity of PCSCs with STAT3 inhibitor; type: cell-based, human; conditions: STAT3 inhibitor with docetaxel or trichostatin-A
Experimental: Live/Dead cell imaging was performed to assess fluorescence based cell viability. Staining was performed as per the manufacturer's directions (Invitrogen™), which was followed by imaging utilizing laser confocal microscopy (Leica©). The images were analyzed by Zeiss© ZEN software. Docetaxel, STATTIC and Trichostatin-A (TSA) were obtained from Sigma. The PCSCs were serum-starved for 24 h and then treated with the drugs for 48 h at a 10 μM concentration (unless mentioned otherwise) prior to assessing the sensitivity of PCSCs to these drugs. DMSO treated cells were used as control. In vitro PDZ1i treatments occurred at 25 μM concentration. In vivo PDZ1i treatments occurred at 25 mg/kg body weight of the mice, 3 times a week for a month.

SMILES | effect on PCSC chemosensitivity
O=[N+]([O-])c1ccc2c(c1)S(=O)(=O)C=C2 [STATTIC] | caused chemosensitivity to both docetaxel and trichostatin-A

molecular target: T1, PDZ1 domain of MDA-9/Syntenin (PDZ12) (Homo sapiens, UniProt O00560); assay: [15N,1H] HSQC chemical shift change ranking of compound affinity; type: binding; conditions: chemical shift changes (DPPM) of backbone amide of residue 147, 50 μM PDZ12, compound at 1:1 molar ratio
T1 construct: HSQC spectrum of 50 μM PDZ12 caused by compound at 1:1 molar ratio
T1 sequence (O00560 110-273 limits assumed): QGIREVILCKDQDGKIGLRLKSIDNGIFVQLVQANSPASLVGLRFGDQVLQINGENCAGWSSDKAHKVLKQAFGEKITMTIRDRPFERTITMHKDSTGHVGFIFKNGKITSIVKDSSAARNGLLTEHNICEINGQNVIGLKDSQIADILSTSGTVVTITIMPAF
Excerpt: *Rank ordering of compound affinity for PDZ1 were estimated based on chemical shift changes (DPPM) of the backbone amide of residue 147 on the [^15N,^1H] […] Kd values reported in parentheses were obtained by NMR titration experiments following the chemical shifts of the backbone amide of residue 147 at different ligand concentrations.

SMILES | Binding affinity ranking
Cc1cc(=O)n2nc(COc3ccccc3)nc2[nH]1 [30A9] | 4 (4 for DPPM 0.06-0.08)
Cc1cc(=O)n2nc(C(=O)Nc3ccc(O)cc3)nc2[nH]1 [112D11] | 2 (2 for DPPM 0.02-0.04)
Cc1cc(=O)n2nc(C(=O)Nc3ccc(N)cc3)nc2[nH]1 [112E7] | 1 (1 for DPPM 0.00-0.02)
O=C(Nc1ccc(O)cc1)c1nc2[nH]c3c(c(=O)n2n1)CCC3 [112E12] | 1 (1 for DPPM 0.00-0.02)
Cc1cc(O)n2nc(C(=O)Nc3ccc(O)cc3)nc2n1 [112F1] | 1 (1 for DPPM 0.00-0.02)
O=C(Nc1ccc(O)c(Cl)c1)c1nc2[nH]c3c(c(=O)n2n1)CCC3 [112F10] | 4 (4 for DPPM 0.06-0.08)
O=C(Nc1ccc(O)c(F)c1)c1nc2[nH]c3c(c(=O)n2n1)CCC3 [112F12] | 2 (2 for DPPM 0.02-0.04)
Cc1cc(=O)n2nc(C(=O)Nc3cc(Cl)c(O)c(Cl)c3)nc2[nH]1 [112G1] | 6 (6 for DPPM above 0.1)
Cc1cc(=O)n2nc(C(=O)Nc3ccc(O)c(F)c3)nc2[nH]1 [112G2] | 4 (4 for DPPM 0.06-0.08)
Cc1cc(=O)n2nc(C(=O)Nc3cc(Cl)c(N)cc3Cl)nc2[nH]1 [112G4] | 6 (6 for DPPM above 0.1)
Nc1ccc(NC(=O)c2nc3[nH]c4c(c(=O)n3n2)CCC4)cc1 [112G11] | 2 (2 for DPPM 0.02-0.04)
Cc1cc(NC(=O)c2nc3[nH]c4c(c(=O)n3n2)CCC4)c(C)cc1NC(=O)CCc1nnc(-c2cccc(C(F)(F)F)c2)o1 [112H9] | 2 (2 for DPPM 0.02-0.04)
Cc1cc(NC(=O)c2nc3[nH]c4c(c(=O)n3n2)CCC4)c(C)cc1NC(=O)CCc1nnc(-c2ccccc2)o1 [113B7] | 4 (4 for DPPM 0.06-0.08)
Cc1c(C)c(NC(=O)c2nc3[nH]c4c(c(=O)n3n2)CCC4)c(C)c(C)c1N [113B8] | 5 (5 for DPPM 0.08-0.1)
Cc1cc(NC(=O)c2nc3[nH]c4c(c(=O)n3n2)CCC4)c(C)cc1NC(=O)Cc1ccc(-c2ccccc2)cc1 [113B9] | N.B.
Cc1cc(NC(=O)c2nc3[nH]c4c(c(=O)n3n2)CCC4)c(C)cc1NC(=O)CCc1nnc(-c2ccsc2)o1 [113B11] | 3 (3 for DPPM 0.04-0.06)
COc1ccc(Br)c(-c2nnc(CCC(=O)Nc3cc(C)c(NC(=O)c4nc5[nH]c6c(c(=O)n5n4)CCC6)cc3C)o2)c1 [113B12] | 1 (1 for DPPM 0.00-0.02)
Cc1cc(=O)n2nc(NCc3ccccc3)nc2[nH]1 [cmpd1] | 2 (2 for DPPM 0.02-0.04)
Cc1cc(=O)n2nc(CCc3ccccc3)nc2[nH]1 [cmpd2] | 3 (3 for DPPM 0.04-0.06)
O=c1c2c([nH]c3nc(NCc4cccs4)nn13)CCC2 [cmpd3] | 1 (1 for DPPM 0.00-0.02)
Cc1cc(=O)n2nc(SCc3ccccc3)nc2[nH]1 [cmpd4] | 4 (4 for DPPM 0.06-0.08)
Cc1[nH]c2nc(C(=O)NCc3ccccc3)nn2c(=O)c1C [cmpd5] | 2 (2 for DPPM 0.02-0.04)
O=c1[nH]c2sc3c(c2c2ncnn12)CCCC3 [cmpd6] | 1 (1 for DPPM 0.00-0.02)
Cc1cc(=O)n2nc(C(=O)Nc3ccc4c(c3)OCCO4)nc2[nH]1 [cmpd7] | 2 (2 for DPPM 0.02-0.04)
COc1cccc(NC(=O)c2nc3[nH]c(C)cc(=O)n3n2)c1 [cmpd8] | 3 (3 for DPPM 0.04-0.06)
Cc1cc(=O)n2nc(C(=O)Nc3ccc4c(c3)OCO4)nc2[nH]1 [cmpd9] | 3 (3 for DPPM 0.04-0.06)
Cc1cc(=O)n2nc(C(=O)Nc3cccc(Cl)c3)nc2[nH]1 [cmpd10] | 4 (4 for DPPM 0.06-0.08)
O=c1c2c([nH]c3nc(COc4ccccc4)nn13)CCC2 [cmpd11] | 5 (5 for DPPM 0.08-0.1)
O=c1c2c([nH]c3nc(CCc4ccccc4)nn13)CCC2 [cmpd13] | 3 (3 for DPPM 0.04-0.06)
CCCc1cc(=O)n2nc(COc3ccccc3)nc2[nH]1 [cmpd14] | 1 (1 for DPPM 0.00-0.02)
